# Measurements as given in ChEMBL document CHEMBL1148086, “Isolation of the furan fatty acid, (8Z,11Z,14Z,17Z)-3,6-epoxyeicos-3,5,8,11,14,17-hexenoic acid from the New Zealand sponge Hymeniacidon hauraki” (J Nat Prod, 1994).
# Active and inactive are the calls of the source. The calls are words filed in the database; no cut-off is given here.
# What was measured:
# P388 = test: Cytotoxicity against mouse P388 cells after 48 hrs by SRB assay; type: functional, cell-based
# Human alphaherpesvirus 1 = test: Antiviral activity against Herpes simplex virus type 1 in african green monkey BSC1 cells after 24 hrs; type: functional, organism-based
# Poliovirus 1 = test: Antiviral activity against Polio virus type 1 in african green monkey BSC1 cells after 24 hrs; type: functional, organism-based
# [1] = Cytotoxicity against african green monkey BSC1 cells after 24 hrs; type: cell-based; conditions: chlorocebus aethiops, bsc-1, 24 h
Structure (SMILES),"IC50 (P388; Mus musculus, P388, 48 h, read-out: IC50)",Activity (Human alphaherpesvirus 1; BSC-1),Activity (Poliovirus 1; BSC-1),Activity [1],IC50 (P388; p388),IC50 (Human alphaherpesvirus 1; bsc-1),IC50 (Poliovirus 1; bsc-1)
CC/C=C\C/C=C\C/C=C\C/C=C\Cc1ccc(CC(=O)O)o1,13.4 µg/mL,Active,Active,2 mm,–,–,–
CC/C=C\C/C=C\C/C=C\C/C=C\Cc1ccc(CC(=O)OC)o1,–,–,–,Not Active,Not Active,Not Active,Not Active
